Patent publication US11291659B2, “P38 kinase inhibitors reduce DUX4 and downstream gene expression for the treatment of FSHD” (Fulcrum Therapeutics, Inc., priority 2017, dated 2022)

Legend:
[1] = system: FSHD myotubes; assay: Myotube formation / fusion, MHC and DAPI staining; assay type: cell-based, Human; conditions: immortalized FSHD myotubes; 1, 0.33, 0.11, 0.037 μM; 4 days
Procedure: (§1) On day 0, change to differentiation media. Remove plates from the incubator and aspirate the growth medium, Wash once with PBS, 100 μL for 96-wells and 1 mL for a 6-well plate, Add 100 μL or 2 mL of differentiation medium per well, 96- or 6-well respectively. Add antisense oligonucleotides or drug at the desire concentration and put back in the incubator. Fusion should start within day 1-2. Incubate for 3-4 days.
Briefly, cells were fixed in 4% paraformaldehyde and […] for 10 min at room temperature. Cells were permeabilized with PBST (1×PBS solution with 0.1% Triton X-100) before blocking with 10% Normal Donkey Serum or 3% BSA (NDS) in PBST. […] DUX4 was detected by immunocytochemistry using the E5-5 antibody in differentiated FSHD myotubes. Activated Caspase-3 was detected cell signaling antibody that we're using for ICC, Asp175 (https://www.cellsignal.com/products/primary-antibodies/cleaved-caspase-3-asp175-antibody/9661).
Immortalized FHSD myotubes were differentiated and treated with DMSO vehicle control or FTX-1821 at concentrations of 1 μM, 0.33 μM, 0.11 μM, or 0.037 μM. […] The nuclei in myotubes were quantified according to MHC staining (FIG. 8B).

[2] = system: DUX4 target genes; assay: RNA-seq profiling of FSHD myotubes; assay type: cell-based, Human
Description: The 40 bp single-end reads from Illumina had good quality by checking with FastQC (http://www.bioinformatics.babraham.ac.uk/projects/fastqc/). Reads were mapped to hg19 using TopHat v2.1.1. The gene model for TopHat was created by merging known Gene in gtf format with kgXref table. Both known Gene and kgXref were downloaded from UCSC table browser in hg19 assembly. The read counts were obtained using feature Counts function from Subread package with strandness option as −r 2. Reads were normalized with DESeq2. […] Consequently, Combat was used for reducing this batch effect. Calculated standard RPKM expression values. Total gene signature is very small and defined at standard statistical cutoffs: 86/19,799 mRNA genes. DUX4-regulated gene signature is majority of total signature: 77/86 mRNA genes=90%. Non-DUX4 regulated genes is minority of total signature with moderate fold changes: 9/86 mRNA genes=10%; 2-2.7×log FC.
In addition, gene expression was also determined in wild type myotubes treated with DMSO. Three replicates for each condition were analyzed by RNA-seq and genes were clustered by the direction and intensity of change.

[3] = system: MBD3L2 mRNA (DUX4 downstream gene); assay: MBD3L2 mRNA expression by qPCR in FSHD myotubes; assay type: cell-based, Human; conditions: for IC50: Homo sapiens, Myotube, read-out: IC50, reduction of MBD3L2 mRNA expression, FSHD myotubes, realtime PCR
Procedure: Cell Plating: Performed three days prior to treatment, 10000 cells were plated per well on gelatinized 96-well plates, or 100000 cells on gelatinized 6-well plates.
(§2) For ASO or compound treatments cells were plate into 100 μL of Promocell growth medium containing ASO or compounds at the described concentrations.
as §1
(§3) Cells were removed from the incubator and media aspirated. Quickly lysed following one of the following protocols: For lysis in 96-well plates direct lysis and one-step RT-Preamp qPCR protocol described below. For each 96-well prepare a mix containing: 19.5 μL Roche Realtime Ready lysis buffer, 0.25 μL RNAse inhibitor, 0.25 μL DNAseI (from Thermo not the included one in the kit). 20 μL of the mix was added to each well, mix 5 times and incubated 5 minutes at RT or alternatively shaken vigorously for 15 minutes. Lysis was observed under the microscope. Samples were frozen −80° C. at least for 15 minutes,
(§4) For qPCR, dilute 1:10 and use 2 μL for a 10 μL 1-step RT-qPCR reaction. For detection of GAPDH, RPLP0, TBP, MYOG, FRG1, MYH3, ACTN2, etc.). Per 10 μL reaction: RNA (1:10 dilution lysate) 2 μL, Fast Advanced Taqman Master Mix (2×) 5 μL, RT enzyme mix (40×) 0.25 μL, Taqman probe set (20×) 0.5 μL, H2O 2.25 μL. The following reaction protocol was run on the QuantStudio 7: 48° C. for 15 min, 50° C. for 2 min, 95° C. for 30 sec, 40×, 95° C. for 5 sec, 60° C. for 30 sec, then plates were read as specified by the manufacturer (Thermo). For 1-step RT-Preamplification used for detection of DUX4 downstream genes, i.e. MBD3L2, ZSCAN4, LEUTX, TRIM43, KHDC1L. POL2RA-VIC was used as Endogenous control). Per 10 μL reaction: RNA (1:10 dilution lysate) 2.25 μL, Taqman Pre-Amp Master Mix (2×) 5 μL, RT enzyme mix (40×) 0.25 μL, Taqman probe set (0.2×)*2.5 μL, * Pooling the TaqMan Assays: equal volumes of each 20× TaqMan® Gene Expression Assay, up to 100 assays were combined. For example, to pool 50 TaqMan assays, 10 μL of each assay were combined in a microcentrifuge tube. The pooled TaqMan assays were diluted using 1×TE buffer so that each assay is at a final concentration of 0.2×. For the above example, add 500 μL of 1×TE buffer to the pooled TaqMan assays for a total final volume of 1 mL. The QuantStudio7 protocol was used 48° C. 15 min, 95° C. 10 min, 10 cycles: 95° C. 15 sec, 60° C. 4 min, 4° C. infinite. Samples were then diluted to 50 μL and continue with the qPCR step. Per 10 μL reaction: Preamp dilution 2 μL, Fast Advanced Taqman Master Mix (2×) 5 μL, Taqman probe set (20×) 0.5 μL, H2O 2.5 μL. When multiplexing the volume was adjusted to 10 μL total). The following program was run on the QuantStudio7: 50° C. for 2 min, 95° C. for 30 sec, 40×, 95° C. for 5 sec, 60° C. for 30 sec, plates were read as per the manufacturers specifications (Thermo).
(§5) After treatment, the control and treated cells were processed for realtime PCR quantification of MBD3L2 mRNA (DUX4 downstream gene) and myogenin (MYOG) mRNA (control) expression.

[4] = system: phospho MK2 to total MK2 ratio; assay: p38 system target engagement in rat trapezius muscle; assay type: in vivo, Sprague-Dawley rats
Procedure: Pharmacodynamic analysis of p38 system target engagement in muscle tissue was performed by measuring the change in phosphor MAP kinase-activated protein kinase 2 (MK2) to total MK2 ratio before and after drug treatment.

[5] = system: DUX4 dependent target genes; assay: Prediction for FSHD patient muscle from rat muscle concentrations and in vitro myotube data; parameters: species or system Human; conditions: at Cmax, FSHD patient muscle biopsies
Procedure: P38 system target engagement persisted for at least 12 hours following the single dose of FTX-1821 (FIG. 15). P38 system target engagement in trapezius muscle was maximal when plasma and muscle concentrations of FTX-1821 were greater than 20 ng/mL or ng/g and declined at timepoints when exposures decreased. The muscle concentrations of FTX-1821 achieved in the rat study are predicted to result in >70% reduction at Cmax in DUX4 dependent target genes in FSHD patient muscle biopsies based upon in vitro data in FSHD myotubes (above).

[6] = system: myogenin (MYOG) mRNA; assay: Myogenin (MYOG) mRNA expression by qPCR in FSHD myotubes (control gene); assay type: cell-based, Human
Procedure: as §2, §1, §3
as §4, with “For the above example, add 500 μL of 1×TE buffer to the pooled TaqMan assays for a total final volume of 1 mL. The QuantStudio7 protocol was used 48° C. 15 min, 95° C. 10 min, 10 cycles: 95° C. 15 sec, 60° C. 4 min, 4° C. infinite. Samples were then diluted to 50 μL and continue with the qPCR step. Per 10 μL reaction: Preamp dilution 2 μL, Fast Advanced Taqman Master Mix (2×) 5 μL, Taqman probe set (20×) 0.5 μL, H2O 2.5 μL. When multiplexing the volume was adjusted to 10 μL total).” left out
as §5

[7] = system: DUX4 and downstream genes ZSCAN4, TRIM43, MBD3L2, LEUTX, KHDC1L; assay: DUX4-regulated downstream genes by real time PCR after DUX4 ASO; assay type: cell-based, Human; conditions: FSHD myotubes
Procedure: as §2
Wild type myotubes were treated with DMSO control vehicle, and mature patient-derived FSHD myotubes that express DUX4 protein were treated with DMSO vehicle control or 1 μM of a DUX4 sequence-directed antisense oligonucleotide (ASO; FTX-2) purchased from Exiqon. After treatment, the myotubes were lysed in 19.5 μL of Roche Real Time Ready Lysis Buffer, 0.25 μL of DNAse1 (Ambion, AM2222), 0.25 μL of Protector RNase Inhibitor (Roche, 3335402001), and the RNA was collected in an RNeasy Micro Kit Master Mix. Expression levels of DUX4-regulated downstream genes (ZSCAN4, TRIM43, MBD3L2, LEUTX, and KHDC1L) was determined by real time PCR (ThermoFisher Scientific, 4484262), ZSCAN4 Taqman Assay (ThermoFisher Scientific, Hs00537549_m1, FAM-MGB), MYOG Taqman Assay (ThermoFisher Scientific, Hs01072232_m1, JUN-QSY), RPLP0 Taqman Assay (ThermoFisher Scientific, Hs99999902_m1), and/or LEUTX Taqman Assay (ThermoFisher Scientific, Hs00418470_m1). Ct values were extracted from QuantStudio Realtime PCR software, and Genedata was used to calculate relative levels of expression using POLR2A as a housekeeping gene.

[8] = rat trapezius muscle, single oral dose 0.3 mg/kg

Compound: Cc1c(F)cc(C(=O)NC2CC2)cc1-c1ccc(C(=O)NCC(C)(C)C)cn1 [FTX-1821]
- myotube formation or fusion [1]: no changes
- Non-DUX4-regulated genes in total signature ([2]; 1 μM vs DMSO, RNA-seq): 9/86
- fold changes of non-DUX4-regulated genes ([2]; 1 μM vs DMSO, RNA-seq): 2-2.7 × log FC
- expression of differentially expressed (DUX4 pathway) genes ([2]; 1 μM, compared with wild type cells): normalized
- MBD3L2 mRNA expression ([3]; FSHD1 and FSHD2 primary patient myoblast lines, 1 μM): reduction of MBD3L2
- MBD3L2 expression levels ([3]; myotubes of four FSHD patient lines FTCE-016, -020, -197, -196, 1 μM): reduced in all of the FSHD lines
- plasma concentration at which inhibition of the p38 system in muscle was maximal ([4]; rat): greater than 20 ng/mL
- plasma and muscle concentrations at which target engagement was maximal ([4]; rat trapezius muscle): greater than 20 ng/mL or ng/g
- phospho MK2 to total MK2 ratio [4, 8]: significantly decreased
- time to decrease of phospho MK2 to total MK2 ratio [4, 8]: ≤ 1 h
- persistence of p38 system target engagement ([4]; rat, single oral dose 0.3 mg/kg): at least 12 hours
- predicted reduction in DUX4 dependent target genes [5]: > 70%

Compound: COc1nccc(-c2c(-c3ccc(F)cc3)ncn2C2CCC(O)CC2)n1 (stereo not shown) [SB239063]
- MYOG mRNA expression [6]: no impact

Compound: CCc1nc(-c2cccc(C)c2)c(-c2ccnc(NC(=O)c3ccccc3)c2)s1 [TAK-715, N-(4-(2-ethyl-4-(3-methylphenyl)-1,3-thiazol-5-yl]-2-pyridyl]benzamide]
- MYOG mRNA expression [6]: no impact
- IC50 [3]: < 10 nM

Compound: NC(=O)c1ccc(N(C(N)=O)c2c(F)cccc2F)nc1-c1ccc(F)cc1F [VX-702, 2-(2,4-difluorophenyl)-6-(1-(2,6-difluorophenyl)ureido)nicotinamide]
- MYOG mRNA expression [6]: no impact
- IC50 [3]: < 10 nM

Compound: FTX-2: DUX4 sequence-directed antisense oligonucleotide purchased from Exiqon, CAGCGTCGGAAGGTGG (SEQ ID NO: 1) (listed as DNA, chemistry not given here)
- expression of DUX4 and target genes ZSCAN4, TRIM43, MBD3L2, LEUTX, KHDC1L ([7]; 1 μM vs DMSO): reduced amounts
- DUX4 and downstream gene MBD3L2 expression ([7]; different dilutions): dose dependent reduction
